Measured values: ChEMBL document CHEMBL1135356, “Multidrug resistant cancer cells susceptibility to cytotoxic taxane diterpenes from Taxus yunnanensis and Taxus chinensis” (2002)
In brackets after ≈: the same amount, converted by molar mass. Activity calls are given as the source filed them. The rule behind the calls is not given here.

What was measured:
[1] = Cytotoxic activity of compound was evaluated against drug resistant subline KB-7d cells; type: functional; conditions: Homo sapiens; read-out: ED50 (the source's name)
KB 3-1 [2] = test: Cytotoxic activity of compound was evaluated against KB-VIN cells expressing (P-glycoprotein).; type: functional; conditions: Homo sapiens, KBVIN; read-out: ED50 (the source's name)
[3] = Cytotoxic activity of compound was evaluated against KB cell line.; type: functional; conditions: Homo sapiens, read-out: ED50 (the source's name)
KB = test: Cytotoxic activity of compound was evaluated against KB cell line; NA denotes not active at conc. of 20 ug/mL.; type: functional, cell-based; conditions: Homo sapiens
KB 3-1 [4] = test: Cytotoxic activity of compound was evaluated against drug resistant subline KB-7d cells at conc. of 20 ug/mL; type: functional; conditions: Homo sapiens
KB 3-1 [5] = test: Cytotoxic activity of compound was evaluated against KB-VIN cells expressing (P-glycoprotein) at conc. of 20 ug/mL; type: functional; conditions: Homo sapiens, KBVIN
U-87 MG [6] = test: Cytotoxic activity of compound against U-87-MG tumor cell line.; type: functional, U-87MG ATCC; conditions: Homo sapiens, read-out: ED50 (the source's name)
HOS [7] = test: Cytotoxic activity of compound against HOS tumor cell line.; type: functional; conditions: Homo sapiens, read-out: ED50 (the source's name)
A549 [8] = test: Cytotoxic activity of compound against A-549 tumor cell line.; type: functional; conditions: Homo sapiens, read-out: ED50 (the source's name)
SK-MEL-2 [9] = test: Cytotoxic activity of compound against SK-MEL-2 tumor cell line.; type: functional; conditions: Homo sapiens, read-out: ED50 (the source's name)
MCF7 [10] = test: Cytotoxic activity of compound against MCF-7 tumor cell line.; type: functional; conditions: Homo sapiens, read-out: ED50 (the source's name)
HCT-8 [11] = test: Cytotoxic activity of compound against HCT-8 tumor cell line.; type: functional; conditions: Homo sapiens, read-out: ED50 (the source's name)
[12] = Cytotoxic activity of compound against IA-9 tumor cell line.; type: functional; conditions: Homo sapiens; read-out: ED50 (the source's name)
[13] = Cytotoxic activity of compound against KB cell lines.; type: functional; conditions: Homo sapiens, read-out: ED50 (the source's name)
[14] = Cytotoxic activity of compound was evaluated against KB cell line at conc. of 20 ug/mL; type: functional; conditions: Homo sapiens
KB 3-1 [15] = test: Cytotoxic activity of compound was evaluated against KB-VIN cells at conc. of 20 ug/mL; type: functional; conditions: Homo sapiens, KBVIN
[16] = Cytotoxic activity of compound against KB cell lines at conc. of 20 ug/mL; type: functional; conditions: Homo sapiens
HOS [17] = test: Cytotoxic activity of compound against HOS tumor cell line at conc. of 20 ug/mL; type: functional; conditions: Homo sapiens
[18] = Cytotoxic activity of compound against IA-9 tumor cell line. at conc. of 20 ug/mL; type: functional; conditions: Homo sapiens
MCF7 [19] = test: Cytotoxic activity of compound against MCF-7 tumor cell line at conc. of 20 ug/mL; type: functional; conditions: Homo sapiens
SK-MEL-2 [20] = test: Cytotoxic activity of compound against SK-MEL-2 tumor cell line at conc. of 20 ug/mL; type: functional; conditions: Homo sapiens
HCT-8 [21] = test: Cytotoxic activity of compound against HCT-8 tumor cell line; NA denotes not active at conc. of 20 ug/mL.; type: functional, cell-based; conditions: Homo sapiens
A549 [22] = test: Cytotoxic activity of compound against A-549 tumor cell line at conc. of 20 ug/mL; type: functional; conditions: Homo sapiens
U-87 MG [23] = test: Cytotoxic activity of compound against U-87-MG tumor cell line at conc. of 20 ug/mL; type: functional, U-87MG ATCC; conditions: Homo sapiens

## C=C1[C@@H](OC(=O)/C=C/c2ccccc2)CC[C@@]2(C)[C@@H](OC(C)=O)[C@H](OC(C)=O)[C@@]34[C@H](C)C(=O)C[C@@H]([C@@H](OC(C)=O)C132)C4(C)C (some centres undefined)
[1]
  EC50: 7.8 µg/mL (≈ 12.9 µM)
KB 3-1 [2]
  EC50: 8.7 µg/mL (≈ 14.3 µM)
[3]
  EC50: 12.1 µg/mL (≈ 19.9 µM)

## CC(=O)O[C@H]1C(=O)[C@@]2(C)C/C(=C\[C@H](OC(C)=O)[C@@H]3C[C@H](OC(C)=O)C(C)=C1C3(C)C)[C@@H](OC(C)=O)C[C@@H]2OC(C)=O
[1]
  EC50: > 20 µg/mL
KB
  ED50: inactive
KB 3-1 [4]
  inhibition at 20 µg/mL: 22%
KB 3-1 [2]
  EC50: > 20 µg/mL
KB 3-1 [5]
  inhibition at 20 µg/mL: 5%

## C=C1[C@@H](OC(=O)/C=C/c2ccccc2)CC[C@@]2(C)[C@@H](OC(C)=O)[C@H](OC(C)=O)C3=C(C)[C@@H](OC(C)=O)C[C@@H]([C@@H](O)[C@H]12)C3(C)C
[1]
  EC50: 9.4 µg/mL (≈ 15.4 µM)
KB 3-1 [2]
  EC50: 11 µg/mL (≈ 18.1 µM)
[3]
  EC50: 12.5 µg/mL (≈ 20.5 µM)

## COc1ccc(-c2cc(=O)c3c(O)cc(OC)cc3o2)c(-c2c(O)cc(O)c3c(=O)cc(-c4ccc(O)cc4)oc23)c1
U-87 MG [6]
  EC50: 7 µg/mL (≈ 12.4 µM)
HOS [7]
  EC50: 8 µg/mL (≈ 14.1 µM)
A549 [8]
  EC50: 5.5 µg/mL (≈ 9.71 µM)
SK-MEL-2 [9]
  EC50: 7 µg/mL (≈ 12.4 µM)
MCF7 [10]
  EC50: 7.5 µg/mL (≈ 13.2 µM)
KB 3-1 [2]
  EC50: > 20 µg/mL
HCT-8 [11]
  EC50: 8.5 µg/mL (≈ 15 µM)
[12]
  EC50: 6 µg/mL (≈ 10.6 µM)
KB 3-1 [5]
  inhibition at 20 µg/mL: 21%
[13]
  EC50: 7.5 µg/mL (≈ 13.2 µM)

## C=C1[C@@H](OC(=O)/C=C/c2ccccc2)C[C@H](OC(C)=O)[C@]2(C)[C@@H]1C[C@@H]1C[C@H](OC(C)=O)C(C)=C([C@@H](OC(C)=O)[C@@H]2OC(C)=O)C1(C)C
[1]
  EC50: 3.5 µg/mL (≈ 5.38 µM)
KB 3-1 [2]
  EC50: 2.4 µg/mL (≈ 3.69 µM)
[3]
  EC50: 4.8 µg/mL (≈ 7.38 µM)

## CC(=O)OC/C1=C\[C@H](OC(C)=O)[C@]2(C)C[C@H](OC(C)=O)C(C)=C([C@@H](OC(C)=O)/C(OC(C)=O)=C(/C)[C@@H](OC(C)=O)C[C@@H]1OC(=O)/C=C/c1ccccc1)C2(C)C
[1]
  EC50: 10 µg/mL (≈ 12.8 µM)
KB 3-1 [2]
  EC50: 13.3 µg/mL (≈ 17 µM)
[3]
  EC50: 16.6 µg/mL (≈ 21.3 µM)

## C=C1[C@@H](OC(C)=O)CC[C@@]2(C)C[C@H](OC(C)=O)C3=C(C)C[C@H](OC(=O)[C@@H](C)C(C)O)[C@@H]([C@@H](OC(C)=O)[C@H]12)C3(C)C (some centres undefined)
[1]
  EC50: 4.3 µg/mL (≈ 7.64 µM)
KB 3-1 [2]
  EC50: 8.6 µg/mL (≈ 15.3 µM)
[3]
  EC50: 9.8 µg/mL (≈ 17.4 µM)

## CC(=O)O[C@H]1C[C@H]2[C@@H](OC(C)=O)/C=C3\C[C@@](C)([C@@H](OC(C)=O)C[C@@H]3OC(C)=O)[C@@H](O)C(=O)C(=C1C)C2(C)C
[1]
  EC50: > 28 µg/mL
[14]
  inhibition at 20 µg/mL: 10%
KB 3-1 [4]
  inhibition at 20 µg/mL: 28%
KB 3-1 [2]
  EC50: > 21 µg/mL
KB 3-1 [15]
  inhibition at 20 µg/mL: 21%
[3]
  EC50: > 20 µg/mL

## C=C1[C@@H](OC(=O)/C=C/c2ccccc2)CC[C@@]2(C)[C@@H](O)[C@H](OC(C)=O)[C@@]34[C@H](C)C(=O)C[C@@H]([C@@H](OC(C)=O)C132)C4(C)C (some centres undefined)
[1]
  EC50: 6.1 µg/mL (≈ 10.8 µM)
KB 3-1 [2]
  EC50: 6.4 µg/mL (≈ 11.3 µM)
[3]
  EC50: 7.7 µg/mL (≈ 13.6 µM)

## C=C1[C@@H](OC(=O)/C=C/c2ccccc2)C[C@H](OC(C)=O)[C@@]2(C)[C@@H](OC(C)=O)[C@H](OC(C)=O)C3=C(C)[C@@H](OC(C)=O)C[C@@H]([C@@H](OC(C)=O)[C@H]12)C3(C)C
[1]
  EC50: 14.2 µg/mL (≈ 20 µM)
KB 3-1 [2]
  EC50: 16.2 µg/mL (≈ 22.9 µM)
[3]
  EC50: 16 µg/mL (≈ 22.6 µM)

## CC(=O)O[C@H]1CC[C@@]2(C)C[C@H](OC(C)=O)C3=C(C)CC(O)[C@@H]([C@@H](OC(C)=O)[C@@H]2C1)C3(C)C (some centres undefined)
[1]
  EC50: 9.6 µg/mL (≈ 21.3 µM)
[14]
  inhibition at 20 µg/mL: 45%
KB 3-1 [2]
  EC50: 17.3 µg/mL (≈ 38.4 µM)
[3]
  EC50: > 20 µg/mL

## C=C1[C@@H](OC(=O)/C=C/c2ccccc2)C[C@H](OC(C)=O)[C@@]2(CCOC(C)=O)[C@@H](OC(C)=O)[C@H](OC(C)=O)[C@]3(O)[C@@]4(C)CO[C@]3(C)C(=O)C[C@H]4[C@@H](OC(C)=O)[C@H]12
[1]
  EC50: 4.6 µg/mL (≈ 5.98 µM)
KB 3-1 [2]
  EC50: 17 µg/mL (≈ 22.1 µM)
[3]
  EC50: 6.2 µg/mL (≈ 8.06 µM)

## COc1ccc(-c2cc(=O)c3c(O)cc(O)c(-c4cc(OC)ccc4-c4cc(=O)c5c(O)cc(OC)cc5o4)c3o2)cc1
U-87 MG [6]
  EC50: > 20 µg/mL
HOS [7]
  EC50: > 20 µg/mL
[16]
  inhibition at 20 µg/mL: 12%
A549 [8]
  EC50: > 20 µg/mL
HOS [17]
  inhibition at 20 µg/mL: 25%
[18]
  inhibition at 20 µg/mL: 44%
SK-MEL-2 [9]
  EC50: > 20 µg/mL
MCF7 [19]
  inhibition at 20 µg/mL: 22%
MCF7 [10]
  EC50: > 20 µg/mL
SK-MEL-2 [20]
  inhibition at 20 µg/mL: 9%
HCT-8 [21]
  inhibition: inactive
A549 [22]
  inhibition at 20 µg/mL: 58%
KB 3-1 [2]
  EC50: > 20 µg/mL
[12]
  EC50: > 20 µg/mL
KB 3-1 [5]
  inhibition at 20 µg/mL: 9%
[13]
  EC50: > 20 µg/mL
U-87 MG [23]
  inhibition at 20 µg/mL: 17%

## C=C1[C@@H](OC(=O)/C=C/c2ccccc2)C[C@H](OC(C)=O)[C@@]2(C)[C@@H](OC(C)=O)[C@H](OC(C)=O)C3=C(C)C(=O)C[C@@H]([C@@H](OC(C)=O)[C@H]12)C3(C)C
[1]
  EC50: 4.1 µg/mL (≈ 6.17 µM)
KB 3-1 [2]
  EC50: 3.6 µg/mL (≈ 5.42 µM)
[3]
  EC50: 3.9 µg/mL (≈ 5.87 µM)
